From US5679712A, “Substituted benzoylguanidines, process for their preparation, their use as a pharmaceutical or diagnostic, and pharmaceutical containing them” (priority 1995, dated 1997)
Structures can show the parent of a compound that is named as a salt.

How the values were obtained:
[1] = target: T1, Na^+ /H^+ exchanger of rabbit erythrocytes (Oryctolagus cuniculus, UniProt P23791); assay: Inhibition of the Na^+/H^+ exchanger of rabbit erythrocytes (amiloride-sensitive sodium influx, flame photometry); format: cell-based, rabbit (New Zealand White); conditions: cholesterol-fed rabbits, hyperosmolar salt/sucrose medium, pH 7.4, 37° C.
T1 construct: endogenous in cells; host or cells: erythrocytes (whole blood samples) of New Zealand White rabbits (Ivanovas) fed 2% cholesterol
T1 sequence (P23791 whole entry): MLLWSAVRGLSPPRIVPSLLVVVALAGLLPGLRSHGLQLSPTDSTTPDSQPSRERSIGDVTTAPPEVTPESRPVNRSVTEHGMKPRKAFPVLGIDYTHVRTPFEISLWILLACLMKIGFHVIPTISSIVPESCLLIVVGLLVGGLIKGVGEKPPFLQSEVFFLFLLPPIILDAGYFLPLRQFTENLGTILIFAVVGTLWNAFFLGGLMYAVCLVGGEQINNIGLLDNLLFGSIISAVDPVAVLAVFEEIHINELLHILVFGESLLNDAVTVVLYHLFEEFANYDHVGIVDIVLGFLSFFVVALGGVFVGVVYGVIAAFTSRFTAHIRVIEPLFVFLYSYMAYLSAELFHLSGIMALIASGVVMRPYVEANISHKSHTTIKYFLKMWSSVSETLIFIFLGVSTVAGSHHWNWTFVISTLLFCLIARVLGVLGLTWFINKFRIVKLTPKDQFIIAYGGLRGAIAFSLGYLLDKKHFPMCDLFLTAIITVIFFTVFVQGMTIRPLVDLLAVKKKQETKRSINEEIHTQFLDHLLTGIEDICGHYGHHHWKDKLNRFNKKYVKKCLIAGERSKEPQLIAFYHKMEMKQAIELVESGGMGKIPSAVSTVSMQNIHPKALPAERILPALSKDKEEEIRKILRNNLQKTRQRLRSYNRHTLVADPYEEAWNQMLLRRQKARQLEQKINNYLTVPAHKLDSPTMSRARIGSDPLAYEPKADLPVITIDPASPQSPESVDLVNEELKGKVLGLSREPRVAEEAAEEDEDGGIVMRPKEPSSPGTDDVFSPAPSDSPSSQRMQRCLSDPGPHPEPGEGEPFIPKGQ
Description: Inhibition of the Na^+ /H^+ exchanger of rabbit erythrocytes
New Zealand White rabbits (Ivanovas) were given a standard diet containing 2% cholesterol for six weeks in order to activate Na^+ /H^+ exchange and thus to be able to determine, by flame photometry, the influx of Na^+ into the erythrocytes by way of Na^+ /H^+ exchange. The blood was removed from the aural arteries and rendered incoagulable with 25 IU of potassium heparin. A portion of each sample was used to determine the hematocrit in duplicate by centrifugation. Aliquots of 100 μl in each case were used for measuring the initial content of Na^+ in the erythrocytes.
In order to determine the amiloride-sensitive sodium influx, 100 μl of each blood sample were in each case incubated in 5 ml of a hyperosmolar salt/sucrose medium (mmol/l: 140 NaCl, 3 KCl, 150 sucrose, 0.1 ouabain, 20 tris-hydroxymethylaminomethane) at pH 7.4 and 37° C. After that, the erythrocytes were washed three times with ice-cold MgCl2 /ouabain solution (mmol/l: 112 MgCl2, 0.1 ouabain), and hemolyzed in 2.0 ml of distilled water. The intracellular content of sodium was determined by flame photometry.
The net influx of Na^+ was calculated from the difference between the initial sodium values and the sodium content of the erythrocytes following incubation. The amiloride-inhibitable sodium influx was obtained from the difference in the sodium content of the erythrocytes following incubation with and without 3×10^-4 mol/l amiloride. The same procedure was used for the compounds according to the invention.

rats' hearts = conditions: isolated rat hearts; cited from earlier work

IC50 [1] [µM] | Structure (SMILES) | potency relative to amiloride, ventricular fibrillation model (rats' hearts)
1 | COc1ccc(C(=O)N=C(N)N)cc1C(C)=O [Example 2, 3-Acetyl-4-methoxybenzoylguanidine hydrochloride] | –
2 | CC(=O)c1cc(C(=O)N=C(N)N)ccc1O [Example 1, 3-Acetyl-4-hydroxybenzoylguanidine] | –
1.1 | CC(=O)c1cc(C(=O)N=C(N)N)ccc1OC(C)C [Example 3, 3-Acetyl-4-isopropoxybenzoylguanidine hydrochloride] | –
1.2 | CC(=O)c1cc(C(=O)N=C(N)N)ccc1OCc1ccccc1 [Example 4, 3-Acetyl-4-benzyloxybenzoylguanidine hydrochloride] | –
– | CCN(c1nc(N)c(C(=O)NC(=N)N)nc1Cl)C(C)C [ethylisopropylamiloride] | even more potent than amiloride itself
